# Source: patent US20090298912A1, “Arginase II: A Target treatment of aging heart and heart failure” (The Johns Hopkins University, priority 2005, published 2009)
# “Also recorded” adds a separate entry of the source.
# Assays:
# [1] = system: isolated rat cardiac myocytes; experiment: Contractility (sarcomere shortening) in isolated rat myocytes; type: cell-based; settings: for Emax, increase in myocardial contractility (sarcomere shortening) / EC50: dose response; for EC50: log value, read-out: LogEC50, increase in myocardial contractility (sarcomere shortening) (converted); for Sarcomere shortening, agent alone: agent alone (L-arginine 0.1 mM), n=3, species of myocytes not stated; for Effect on the BEC-induced increase in contractility: L-NAME 10^−4 M (0.1 mM), SMTC 10 μM
# Protocol: (§1) Measurement of Contractility in Isolated Rat and Mouse Myocytes: Both rat and mouse myocytes were isolated by enzymatic digestion as previously described (2, 3). Myocytes were transferred to a lucite chamber on the stage of an inverted microscope (Nikon TE 200), continuously superfused with Tyrodes containing 1.0 mM Ca^2+, and stimulated at 1 Hz. Sarcomere length was recorded with an IonOptix intensified charged coupled device camera (iCCD) camera. Change in average sarcomere length was determined by fast Fourier transform of the Z-line density trace to the frequency domain (IonOptix, Milton, Mass.) as previously described (2, 3).
# (§2) Data Analysis and Statistics: All data are presented as mean±SEM, with N being indicated for each experimental protocol. For dose responses, data was fitted using the software program Prism 4 (Graphpad) and Emax and EC50 calculated. Statistical analysis was performed using one-way analysis of variance with post test or unpaired Student t test where appropriate.
# isolated mouse myocytes = experiment: Contractility (sarcomere shortening) in isolated mouse myocytes (WT, NOS1 and NOS3 deficient); type: cell-based
# Text: Animals: Mice (8 to 10 weeks old) homozygous for targeted disruption of the NOS1 gene (NOS1^−/−, n=3), the NOS3 gene (NOS3^−/−, n=3), and wild-type control mice (WT, C57BL6J, n=3) were purchased from Jackson Laboratories. All rats (Wistar, 11 to 14 weeks old) were purchased from Harlan Laboratory. All protocols conformed to the current National Institutes of Health and American Physiological Society Guidelines for the Use and Care of Laboratory Animals.
# as §1, §2
# arginase [2] = target: T1, arginase (Rattus norvegicus, UniProt O08701); experiment: Arginase activity in rat heart and isolated myocyte homogenates; type: biochemical; settings: isolated rat myocytes, dose-dependent
# T1 construct: Arginase activity is present in both whole rat heart (n=4) and isolated rat myocytes (n=3); from tissue; host or cells: Wistar rat heart tissue and freshly isolated rat cardiac myocytes (homogenates)
# T1 sequence (O08701 23-354): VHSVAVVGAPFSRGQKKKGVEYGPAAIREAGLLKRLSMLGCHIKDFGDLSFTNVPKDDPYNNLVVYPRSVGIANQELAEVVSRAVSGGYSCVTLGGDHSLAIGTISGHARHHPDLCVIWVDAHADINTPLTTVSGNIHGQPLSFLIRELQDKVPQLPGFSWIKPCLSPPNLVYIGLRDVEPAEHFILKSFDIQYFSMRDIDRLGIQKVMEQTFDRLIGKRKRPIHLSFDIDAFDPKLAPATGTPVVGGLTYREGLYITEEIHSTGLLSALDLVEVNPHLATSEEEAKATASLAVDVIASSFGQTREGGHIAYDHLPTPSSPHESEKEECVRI
# Protocol: (§3) Arginase Activity: Rat hearts and myocytes were homogenized in lysis buffer (50 mM Tris-HCl, pH 7.5, 0.1 mM EDTA and protease inhibitor) and centrifuged for 30 min at 14,000 g at 4° C. for an arginase activity assay as described previously (20).
# arginase [3] = experiment: as above; type: biochemical; settings: whole rat heart homogenate, dose-dependent
# Protocol: as §3
# NO production = NO production (nitrite levels) in heart and isolated cardiac myocyte lysates; type: biochemical, rat; settings: for NO production: BEC 10 μmol/L, n=6; for Effect on myocyte NO production: isolated myocytes, exogenous L-arginine 0.1 mM alone
# Protocol: NOS Activity and NO Production: NO production was evaluated by measuring nitrite levels (Calbiochem) following pre-incubation of heart and myocytes with BEC (10 μmol/L) in PBS (pH 7.4) as previously described (52).
structure (smiles),measurement,setting,value
"N=C(NO)NCC[C@H](N)C(=O)O [Nor-NOHA, N-hydroxy-nor-L-arginine]",Increase in contractility (sarcomere shortening),"[1]; isolated rat myocytes, Nor-NOHA dose response (FIG. 4b legend)",1.9±0.45 fold increase
same,"Emax, increase in myocardial contractility (sarcomere shortening)",[1]; isolated rat myocytes,1.98±0.23 fold increase
same,EC50,[1]; isolated rat myocytes,1580 nM
COC(=O)[C@@H](N)CCCNC(=N)N[N+](=O)[O-] [L-NAME],"Sarcomere shortening, agent alone",[1],0.76±0.06 fold change
same,Effect on the BEC-induced increase in contractility,[1]; isolated rat myocytes,completely abolished; also recorded: completely inhibited
CSC(N)=NCCC[C@H](N)C(=O)O [SMTC],Effect on the BEC-induced increase in contractility,[1]; isolated rat myocytes,abolished; also recorded: inhibited
"N[C@@H](CSCCB(O)O)C(=O)O [BEC, S-(2-boronoethyl)-L-cysteine]","Emax, basal sarcomere shortening",isolated mouse myocytes; myocytes from NOS1 deficient mice,1.11±0.08
same,Effect on contractility,"isolated mouse myocytes; myocytes from NOS1 deficient mice, increasing doses",no effect
same,"Emax, basal sarcomere shortening",isolated mouse myocytes; myocytes from NOS3 deficient mice,1.81±0.17
same,Effect on sarcomere shortening,"isolated mouse myocytes; myocytes from NOS3 deficient mice, increasing doses",dose dependently increased
same,Effect on sarcomere shortening,"isolated mouse myocytes; myocytes from WT mice, increasing doses",dose dependently increased
same,"Emax, basal sarcomere shortening",isolated mouse myocytes; myocytes from wild type mice,1.97±0.24
same,Arginase activity in presence of inhibitor,arginase [2],inhabitable; also recorded: inhibited
same,Arginase activity in presence of inhibitor,arginase [3],inhibitable; also recorded: inhibited
same,NO production,NO production; heart lysates,16.7±1 μmol/mg protein
same,NO production,NO production; isolated myocyte lysates,11.1±2.2 μmol/mg protein
same,"Contractility, fold change in sarcomere shortening","[1]; isolated rat myocytes, BEC 10^−5M alone (FIG. 4a)",2.1±0.14 fold change
same,"Contractility (sarcomere shortening), fold change","[1]; isolated rat myocytes, BEC alone, NOS1 inhibitor experiment (FIG. 5a)",2.06±0.14
same,"Emax, increase in myocardial contractility (sarcomere shortening)",[1]; isolated rat myocytes,1.8±0.3 fold increase
same,EC50,[1]; isolated rat myocytes,1580 nM
same,Effect on sarcomere shortening,"[1]; isolated rat myocytes, increasing doses",dose dependently increased
N=C(N)NCCC[C@H](N)C(=O)O [L-arginine],Effect on myocyte NO production,NO production,did not effect
same,Effect on myocyte NO production,NO production; listed as L-Arginine,no effect
same,"Sarcomere shortening, agent alone",[1],1.1±0.05 fold change
